Earlier results on 1 molecule are cited in patent publication US20250304714A1, “Methods of Treating Metastatic Castration-Resistant Prostate Cancer with Bispecific Anti-PSMA x Anti-CD3 Antibodies Alone or in Combination with Anti-PD-1 Antibodies” (Regeneron Pharmaceuticals, Inc., priority 2022, published 2025).

The conditions of series [1]: intended dose ˜9±1 mCi per IV injection; cited from earlier work.
The conditions of series [2]: multiple phase 1 to 3 studies, prostate cancer patients; cited from earlier work.

For `O=C(O)CC[C@H](NC(=O)N[C@@H](CCCCNC(=O)c1ccc(F)nc1)C(=O)O)C(=O)O` [DCFPyL], in series [1], the “Radiation dose from the PET/CT scan” value is recorded as “about 7.4 mSv”. In series [2], the tolerability entry is “well tolerated”.
